Among the data in a melting point compilation (Tetko et al.; mined from patent text by program, amines drawn as free bases though some values may be those of a salt) are melting point values, retold here.

Some results are limits rather than exact numbers.

By melting point is commonly meant the temperature, or range, at which the solid turns liquid. `CCOC(=O)C1=C(C)NC(C=NOC)=C(C(=O)OCC)C1c1ccccc1Cl` (centres undefined) came in with a melting point of 110 to 112 °C.

In turn, `COCCC(=O)OC[C@@H](O)[C@@H]1CC(c2ccc(-c3ccc(N4C[C@H](Cn5ccnn5)OC4=O)cc3F)cn2)=NO1` registered a melting point of 130 °C.

In turn, `CC(C)N(CCC1(c2ccccc2)C(=O)NCN2CCCCC21)C(C)C` (centres undefined) had a melting point of 164 to 166 °C.

With `CCN1CCN(CCCN2CC[C@H](NC(=O)c3cc(Cl)c(N)cc3OC)[C@H](OC)C2)C1=O` (relative stereo), the melting point was 113 °C.

`O=C(O)CCCCCCCCCCCCCCCCCCC(=O)ON1C(=O)CCC1=O` registered a melting point of 122 to 124 °C.

`Cc1c(C(=O)O)c(=O)c(-c2ccccc2)cn1C` registered a melting point of 227 to 228 °C.

On to `O=C1NC=NC2CN=C(c3ccccc3)c3cc(Cl)ccc3C12` (centres undefined), for which the melting point lay within 150 to 155 °C.

The molecule `N=C(N)NCCCCOc1ccc2c(c1)NC(=O)C(CCC(=O)O)C2` (centres undefined) yielded a melting point of 176 to 177 °C.

In the case of `O=C1CCC(c2ccc(O)cc2)N1` (centres undefined), the melting point came out at 183 °C.

The molecule `CC1=CCC2C(=O)N(c3ccccc3)C(=O)C2C1` (centres undefined) registered a melting point of 92 to 93 °C.

Molecule `O=C(CC1CCOCC1)Nc1cccc2nc(N[C@@H]3CCc4ccccc43)ccc12` had a melting point of 211 °C.

For the molecule `O=C1OC(O)c2ccc(Cl)cc21` (centres undefined), the melting point is 108 to 109 °C.

`Nc1c(C(=O)c2ccccc2)oc2ccccc12` came in with a melting point of 122 to 124 °C.

In turn, `CCc1cccc(-c2ccc(S(=O)(=O)N3c4ccccc4CC3C(=O)NCc3ccc(CC(=O)O)cc3)cc2)c1` (centres undefined) displayed a melting point of 98 °C.

For the molecule `CC(C)(C)c1cc(Cl)cc(CO[C@H]2CCCN(Cc3nc(=O)[nH][nH]3)[C@H]2c2ccccc2)c1`, the melting point is 181 to 182 °C.

As for `CCOc1ccc(NC(=O)c2cn(CC)c3c2C(=O)CCC3)cc1`, the melting point lay in the range of 209 to 210 °C.

Take `O=Cc1cc(-c2cccs2)ccc1O`: the melting point lay within 102 to 103 °C.

Take `Nc1c(Br)cc(C(=O)CCC(=O)O)cc1Br`: the melting point fell in the range of 200 to 202 °C.

As to `O=C(Cn1ccnc1)c1ccc(F)cc1F`, the melting point is 125 °C.

`COc1cc(F)ccc1-c1c(/C=C/C(O)CC(=O)O)c2ccccc2c(=O)n1C(C)C` (centres undefined) returned a melting point of 207 to 209 °C.

Molecule `CN1CCN(c2cnn(C)c(=O)c2C=NO)CC1` had a melting point of 168 to 169 °C.

`C=CCc1ccc2oc(C(=O)OCC)c(C)c2c1O` returned a melting point of 123 °C.

The molecule `O=C(c1ccc(S(=O)(=O)Cl)cc1)c1cccs1` displayed a melting point of 118 °C.

`O=C(CCCCCCCCCCN1CCN(c2ccccc2)CC1)Nc1ccc(O)cc1`: the melting point lay in the range of 160 to 162 °C.

The molecule `CC(=O)OCC(O)(CN(C)S(=O)(=O)c1ccc(Cl)c(C)c1)c1cccc(Cl)n1` (centres undefined) came in with a melting point of 92 to 93 °C.

For `Nc1c(C(=O)O)c(=O)[nH]c2ccccc12`, the melting point was > 250 °C.

`COCOCC(=O)c1cnc(NC(=O)C(C)(C)C)cn1`: the melting point fell in the range of 141 to 142 °C.

In the case of `CC(C)(O)CC(N)C1(c2ccc(Cl)cc2)CCC1` (centres undefined), the melting point was in the range of 60 to 62 °C.

`CCCc1nn(-c2ccc(C(F)(F)F)cn2)cc1CCCCOc1cc(CCC(=O)O)n(-c2ccccc2)n1` had a melting point of 123 to 124 °C.

On to `OC(Cn1ccnc1)(c1ccc(-c2ccccc2)cc1)c1ccccc1Cl` (centres undefined), for which the melting point amounted to 222 °C.

As to `Cc1ccc(-c2c(Cl)nc3ncnn3c2Cl)c(F)c1`, the melting point amounted to 152 °C.

With `FC(F)(F)c1cc(Cl)nc2[nH]ncc12`, the melting point was 112 °C.

In turn, `CC(C)(C)OC(=O)N[C@H](Cc1ccccc1)C(=O)NCC(=O)OCc1ccccc1` gave a melting point of 133 to 134 °C.

In turn, `CC(=O)CC(=O)NC1CCCC1` showed a melting point of 52 °C.

The molecule `C[Si](C)(C)OC1(c2ccccc2F)C(=O)Nc2ccc(Cl)cc21` (centres undefined) registered a melting point of 125 to 127 °C.

In the case of `CCCn1c(=O)c(C(=O)OCC)c(N)c2cccnc21`, the melting point fell in the range of 165 to 168 °C.

In the case of `Cc1ccc(S(=O)(=O)N2CCC[C@H]2C(=O)N2c3ccc(F)c(Cl)c3C(=O)CC2C)cc1` (some centres undefined), the melting point fell in the range of 135 to 136 °C.

For the molecule `CC1=CC(c2ccccc2Cl)C(C(=O)OC(C)C)=C(N)N1` (centres undefined), the melting point was found to be 161 °C.

The molecule `CCc1ccc2nc(C)[nH]c2c1N1CC(CNC(C)=O)OC1=O` (centres undefined) registered a melting point of 217 to 218 °C.

In the case of `OCCN1CCN(C2Cc3ccccc3Sc3cc(F)c(Cl)cc32)CC1` (centres undefined), the melting point was in the range of 150 to 152 °C.

`O=C(C=Cc1cccc(-c2ccccc2)c1)Nc1ccc(CP2(=O)OCCCO2)cc1` had a melting point of 204 to 205 °C.

As to `CCCc1c(OCC(O)COc2ccc(CC(=O)O)cc2F)ccc(C(C)=O)c1O` (centres undefined), the melting point was 137 to 138 °C.

Molecule `OCCc1c(-c2ccccc2)n2nnnc2n2ncnc12` displayed a melting point of 110 °C.

The molecule `CCNC(=O)c1ccc(N2CCN(Cc3cnc4c(c3)[nH]c(=O)n3cccc43)CC2)c(Cl)c1` returned a melting point of 266 to 271 °C.

With `Cn1cnc(COc2nn3c(-c4ccccc4F)nnc3cc2C2CCC2)c1`, the melting point was determined as 176 °C.

The molecule `CC(=Cc1ccccc1)S(=O)(=O)NC(=O)N1CCCCC1` displayed a melting point of 159 to 161 °C.

The molecule `O=S(=O)(c1ccccc1)c1cncc(OC2SCC(O)C(O)C2O)c1` (centres undefined) displayed a melting point of 86 °C.

With `CC1CCCCC1C(=O)Nc1ccc(-c2ncc(-c3ccc(NC(=O)c4cccnc4)cc3)[nH]2)cc1` (centres undefined), the melting point lay within 245 to 247 °C.

`CCCc1c(OCCOCCOc2ccc3ccc(OCCCC(=O)O)cc3c2C(C)=O)ccc(C(C)=O)c1O` gave a melting point of 71 to 75 °C.

`COc1ccc(N2C[C@](C)(COc3ccc(C#N)cc3)OC2=O)cc1` yielded a melting point of 147 to 149 °C.

On to `Nc1ccc(-c2c(Cc3ccccc3)sc3ncnc(N)c23)cc1`, for which the melting point was in the range of 208 to 210 °C.

`CC(C)(C)OC(=O)Nc1ccccc1NC(=O)c1ccc(C#N)nc1` showed a melting point of 183 to 184 °C.

With `CC(=O)c1ccc(Nc2cccc(-c3cnc(N)nc3)c2)c([N+](=O)[O-])c1`, the melting point is 233 to 236 °C.

Molecule `CCOC(=O)C1=C(C=NOc2ccc([N+](=O)[O-])cc2[N+](=O)[O-])NC(CF)=C(C(=O)OCC)C1c1cccc([N+](=O)[O-])c1` (centres undefined) came in with a melting point of 150 to 152 °C.

`C=CC1(C(=O)c2ccc(Cl)cc2)C=CC=CC1Cl` (centres undefined) came in with a melting point of 120 to 122 °C.

`COc1cc2c(cc1OC)N(N)C(=O)C(C(=O)OC(C)(C)C)C2` (centres undefined) registered a melting point of 155 to 157 °C.

Molecule `C#CCN(c1ccc(C(=O)O)cc1)C1CCc2cc3nc(COC(=O)C(C)(C)C)[nH]c(=O)c3cc21` (racemic) had a melting point of 133 °C.

For `CN(C)[C@@H]1Cc2c(O)cccc2C[C@H]1O` (relative stereo), the melting point is 179 to 183 °C.

In turn, `CNC(=O)c1ccccc1Nc1nc(Nc2ccc3c(c2)CCN(CCOC)CC3)ncc1Cl` registered a melting point of 178 to 183 °C.

`CN1CCN(c2ccc(C(=O)CCC(=O)N3CCC(c4ccc(Cl)cc4)CC3)cc2)CC1` displayed a melting point of 152 to 153 °C.

For `COc1ccc(-c2[nH]cnc2-c2cc(OC)c(O)c(OC)c2)cc1O`, the melting point lay in the range of 172 to 173 °C.

For the molecule `CC(=NNC(=N)N)c1sc(-c2ccccc2)nc1C`, the melting point lay in the range of 195 to 196 °C.

`C=CCOc1nc(SC)nc(NC(C)C)c1[N+](=O)[O-]`: the melting point was in the range of 51 to 54 °C.

Molecule `COC(=O)[C@H](/C=C/[C@H](Cc1ccccc1)NC(=O)OC(C)(C)C)Cc1ccccc1` gave a melting point of 84 to 85 °C.

Molecule `OC(c1cc(-c2ccc(Cl)cc2)c(-c2ccc(Cl)cc2)[nH]1)(C(F)(F)F)C(F)(F)F` showed a melting point of 144 to 145 °C.

The molecule `CC(C)CC1(C)NCCNC1=O` (centres undefined) registered a melting point of 79 to 82 °C.

The molecule `NC(Cc1c[nH]c2c(F)cccc12)C(=O)O` (centres undefined) displayed a melting point of 256 to 261 °C.

Regarding `Nc1c(F)c(F)c(F)c(F)c1S(=O)(=O)O`, the melting point fell in the range of 272 to 276 °C.

As for `O=C(Nc1ccc(-n2nc(C(F)(F)F)cc2C(F)(F)F)cc1)c1ccc(Cl)cc1F`, the melting point was in the range of 156 to 158 °C.

`COc1cc(NCCCCCCN2CCCN(C)CC2)c2nccc(C)c2c1` had a melting point of 137 to 139 °C.

The molecule `CCOC(=O)C=Cc1ccc(CCc2nc(-c3ccccc3)c(C)s2)cc1` yielded a melting point of 69 to 70 °C.

Regarding `S=c1nc2c(Cl)cccn2c(=S)n1-c1ncccc1Cl`, the melting point was 120 to 122 °C.

Consider `COC(=O)Cc1cccc(C(=O)c2ccccc2)c1N`, for which the melting point is 52 to 54 °C.

As for `CC1(C)Oc2cnccc2C2OC21` (centres undefined), the melting point fell in the range of 110 to 112 °C.

`O=[N+]([O-])c1ccc(C(F)(F)F)c(Nc2nc3ccccc3o2)c1` showed a melting point of 150 to 152 °C.

`Clc1ccc(SC(CCc2ccccc2)Cn2ccnc2)cc1Cl` (centres undefined) returned a melting point of 145 to 147 °C.

The molecule `NC(=O)C1CCc2ccc([N+](=O)[O-])cc21` (centres undefined) displayed a melting point of 144 to 145 °C.

With `CC(C)C[C@@H](C(=O)N1CCN(C(c2ccc(F)cc2)c2ccc(F)cc2)CC1)N1CCOCC1`, the melting point lay within 55 to 63 °C.

Regarding `C/C(=C\c1ccc(C(=O)O)cc1)c1ccc(O)c(C23CC4CC(CC(C4)C2)C3)c1`, the melting point was in the range of 245 to 246 °C.

`CC(C)C=CC1(C(F)(F)F)OCC(=O)Nc2ccc(Cl)cc21` (centres undefined) showed a melting point of 148 to 149 °C.

In the case of `CCOC(=O)C1Cc2c([nH]c3ccc(C)cc23)C(c2ccccc2)N1` (centres undefined), the melting point fell in the range of 128 to 130 °C.

With `CCn1c(C(F)(F)F)n[nH]c1=S`, the melting point came to 93 °C.

`CCCC(=O)C1=C(O)CC(c2c(C)c(C)c(C)c3c2OCC3)CC1=O` (centres undefined) yielded a melting point of 140 °C.

The molecule `c1ccc(C2CCN(CCC(c3ccccc3)(c3ccccc3)c3nnn[nH]3)CC2)cc1` gave a melting point of 149 to 157 °C.

Turning to `CCOC(=O)C1=C(COc2cccnc2)NC(COc2cccnc2)=C(C(=O)OCC)C1c1cccc([N+](=O)[O-])c1`, the melting point lay in the range of 206 to 208 °C.

In the case of `CN1CCC(C2Nc3cc(Br)ccc3N3CCc4cccc2c43)CC1` (centres undefined), the melting point fell in the range of 206 to 208 °C.

As to `O=C1C(=O)N2CCCc3cccc1c32`, the melting point turned out to be 199 °C.

As for `Cn1cccc1C(=O)C(C#N)C(=O)Nc1c(Cl)cccc1Cl` (centres undefined), the melting point was 196 to 199 °C.

In turn, `O=C(NCC12CC3CC(CC(C3)C1)C2)c1cc(N2CC2)ccc1Cl` displayed a melting point of 154 to 155 °C.
